Test results from patent US5460801A, “Inhibition of small cell lung cancer cell growth in vivo using monoclonal antibody” (The United States of America as represented by the …, priority 1993, dated 1995).
Where “and” joins values, the source holds several entries; their conditions need not be identical. Identical values can stand only once. Square brackets hold non-standard residues; d marks the D form. Ends that are not written are not given here. Peptide text beside a SMILES is read from it. pGlu = O=C1CC[C@@H](C(=O)O)N1

Key:
monoclonal antibody 2A11 = experiment: Indirect radioimmunoassay: 2A11 cross reactivity with solid phase synthetic peptides; assay type: binding, mouse; conditions: for % 125I-PROTEIN A BOUND (% cross reactivity with 2A11): cpm minus BSA background relative to bombesin; for % 125I-PROTEIN A BOUND (% cross reactivity with 2A11) / CPM 125I-PROTEIN A BOUND: peptides solid phased at 500 ng/well; for CPM 125I-PROTEIN A BOUND: 2A11 10 μg/ml, detection with rabbit anti mouse IgG and 125I-protein A; for 2A11 binding to the solid phase peptide (in words): indirect RIA / titration of 2A11
Procedure: Peptides (all purchased from Peninsula Laboratories) were adsorbed to 96 well polyvinyl chloride microtiter plates (Dynatech) by adding 0.05 ml of a 10 μg/ml peptide in phosphate buffered saline (PBS) for 1 hr., washing in PBS, then blocking with a 1% bovine serum albumin (BSA) PBS solution. Purified 2A11 from ascites fluid (10 μg/ml) was added, incubated, washed three times, then protein A affinity purified rabbit anti-mouse IgG (Cappel Laboratories) 1.6 μg/ml) was added, incubated, washed three times, then ^125 I-protein A (Pharmacia, labeled by chloramine T method to 40-50 μCi/μg) 40,000 cpm/well was added, incubated, washed 8× and then the wells cut out and counted in a Beckman gamma counter. All incubations were for 1 hr. at room temperature in PBS with 1% BSA in 0.025 ml volumes.
Percent cross reactivity was determined as follows:
% cross reactivity--cpm^125 I-protein A bound on peptide target minus cpm bound on BSA target divided by crop bound by bombesin minus BSA background times 100. Typically, the bombesin target caused 2A11 binding sufficient to bind about 32,776 cpm of ^125 I-protein A while the BSA background bound about 30 cpm.

solid phase 2A11 = experiment: Quantitative inhibition assay: peptide inhibition of 125I-Tyr4-BN binding to solid phase 2A11; parameters: species or system mouse; conditions: for PERCENT INHIBITION of 125I-Tyr4-BN binding to solid phase 2A11: peptides at 1 nM, mean ± SD of 3 determinations
Procedure: Antibodies 2A11 or MOPC 21 were adsorbed to 96 well polyvinylchloride plates at 500 ng/well followed by saturation with 1% BSA-PBS. Unlabeled bombesin was added to triplicate wells covering a range from 1-1,000 pg and incubated for 1 hr. at room temperature. Without removing the unlabeled bombesin samples, about 12,000 cpm of ^125 I-Tyr^4 -bombesin was added to each well and incubated overnight at 4° C., washed 8× and counted. All additions were in 1% BSA-PBS in a 25 μl volume, and the washes were with 1% BSA-PBS 0.2 ml/well.

[1] = system: 2A11 staining of BLP in paraffin embedded tissue; experiment: Immunohistochemical staining with 2A11: pre-absorption specificity test; conditions: peptide 100 μg/ml; 2A11 at 10 μg/ml
Excerpt: Antibody 2A11 was also used for immunohistochemical localization of BLP in paraffin embedded tissue. Using rabbit antisera it has been reported that chick proventriculus and human fetal bronchioles are rich in BN-like immunoreactivity. Use was, therefore, made of immunohistochemical staining technique of Hsu, et al. J. Histochem. Cytochem. 29, 557-5--1981, in combination with 2A11 for the light microscopic detection of BLP. Bombesinergic cells were found in chick proventriculus, human fetal bronchioles and a human SCLC. Immune staining was performed using 2A11 at 10 μg/ml.

NCI-N592 = experiment: Agarose clonogenic assay in serum-free HITES medium, NCI-N592; assay type: cell-based, human; conditions: 50 nM exogenous BN; SCLC lines NCI-N417D and NCI-N592
Procedure: Because of its poor colony forming efficiency in serum-free medium, NCI-N417 culture plates were supplemented with 0.1% BSA to enhance cell growth, NCI-N592 cells were seeded at 5×10^4 per plate while NCI-N417 cells were plated at 1×10^4. Plates were pre-screened to verify single cell distribution of test cells and assessed 21 days later for colony formation. Cell aggregates of greater than 50 cells were scored positive as definitive colony growth.

Compound	% 125I-PROTEIN A BOUND (% cross reactivity with 2A11) (monoclonal antibody 2A11) [%]	CPM 125I-PROTEIN A BOUND (monoclonal antibody 2A11)	PERCENT INHIBITION of 125I-Tyr4-BN binding to solid phase 2A11 (solid phase 2A11) [%]	other results
CC[C@H](C)[C@H](NC(=O)[C@H](Cc1ccccc1)NC(=O)[C@H](C)NC(=O)[C@H](CC(=O)O)NC(=O)[C@H](CCCCN)NC(=O)[C@H](CO)NC(=O)[C@@H]1CCCN1C(=O)[C@@H]1CCC(=O)N1)C(=O)NCC(=O)N[C@@H](CC(C)C)C(=O)N[C@@H](CCSC)C(N)=O [ELEDOISIN, eledoisin] ([pGlu]PSKDAFIGLM-NH2)	< 0.02	24 CPM	–	% 125I-PROTEIN A BOUND (% cross reactivity with 2A11) (monoclonal antibody 2A11; listed as eledoisin): less than 0.3%
CSCC[C@H](NC(=O)[C@H](Cc1ccccc1)NC(=O)[C@H](Cc1c[nH]cn1)NC(=O)CNC(=O)[C@@H](NC(=O)[C@H](C)NC(=O)[C@H](Cc1c[nH]c2ccccc12)NC(=O)[C@H](CCC(N)=O)NC(=O)[C@@H]1CCC(=O)N1)C(C)C)C(N)=O [Litorin]	–	–	56.5 ± 6.2	–
CSCC[C@H](NC(=O)[C@H](Cc1ccccc1)NC(=O)[C@H](Cc1c[nH]cn1)NC(=O)CNC(=O)[C@@H](NC(=O)[C@H](C)NC(=O)[C@H](Cc1c[nH]c2ccccc12)NC(=O)[C@H](CCC(N)=O)NC(=O)[C@@H]1CCCN1C(=O)[C@@H](NC(=O)[C@@H]1CCC(=O)N1)C(C)C)C(C)C)C(N)=O [Ranatensin] ([pGlu]VPQWAVGHFM-NH2)	–	–	54.0 ± 8.4	–
CSCC[C@H](NC(=O)[C@H](CC(C)C)NC(=O)CNC(=O)[C@H](Cc1ccccc1)NC(=O)[C@H](Cc1ccccc1)NC(=O)[C@H](CCC(N)=O)NC(=O)[C@H](CCC(N)=O)NC(=O)[C@@H]1CCCN1C(=O)[C@H](CCCCN)NC(=O)[C@@H]1CCCN1C(=O)[C@@H](N)CCCNC(=N)N)C(N)=O [SUBSTANCE P, substance P]	< 0.02	31 CPM	–	inhibition of 125I-Tyr4-BN/2A11 binding (in words) (solid phase 2A11; same concentration range as BN standard curve): incapable of inhibiting; % 125I-PROTEIN A BOUND (% cross reactivity with 2A11) (monoclonal antibody 2A11; listed as substance P): less than 0.3%; 2A11 binding to the solid phase peptide (in words) (monoclonal antibody 2A11): insignificant 2A11 binding
Alytesin	–	–	99.0 ± 5.1	–
GRP^14-27: fragment 14-27 of gastrin releasing peptide (MYPRGNHWAVGHLM; ends and bridges not checked; UniProt P07492 37-50, looked up, fragment)	102	33,379 CPM	104.3 ± 7.7	–
GRP^20-27: C-terminal octapeptide fragment 20-27 of gastrin releasing peptide	–	–	–	PERCENT INHIBITION of 125I-Tyr4-BN binding to solid phase 2A11 (solid phase 2A11; 0.001 µM): 98.5 ± 2.4% and 98.5%
KASSININ	< 0.02	37 CPM	–	% 125I-PROTEIN A BOUND (% cross reactivity with 2A11) (monoclonal antibody 2A11; listed as kassinin): less than 0.3%
PHYSALAEMIN	< 0.02	28 CPM	–	% 125I-PROTEIN A BOUND (% cross reactivity with 2A11) (monoclonal antibody 2A11; listed as physalaemin): less than 0.3%
bombesin	100	–	100.0 ± 4.7	2A11 binding to the solid phase peptide (in words) (monoclonal antibody 2A11): maximal binding; CPM 125I-PROTEIN A BOUND (monoclonal antibody 2A11; listed as BOMBESIN): 32,776 CPM; CPM 125I-PROTEIN A BOUND (monoclonal antibody 2A11; listed as bombesin): about 32,776 CPM; effect of pre-absorption of the antibody solution on 2A11 staining (in words) [1]: staining inhibited; effect of exogenous BN on 2A11 growth inhibition (in words) (NCI-N592): nullification of the 2A11 effect
gastrin-releasing peptide [GASTRIN RELEASING PEPTIDE (GRP)]	102	33,405 CPM	101.0 ± 3.4	2A11 binding to the solid phase peptide (in words) (monoclonal antibody 2A11): maximal binding
neurotensin	–	–	–	effect of pre-absorption of the antibody solution on 2A11 staining (in words) [1]: no inhibition of staining
